Assay results: patent publication US11400084B2 (BioTheryX, Inc., priority 2018, dated 2022)

What was measured:
IKAROS = target: T1, IKAROS (Homo sapiens, UniProt Q13422+Q96SW2); assay: Western blot IKAROS degradation assay in MV-4-11 cells; type: cell-based; conditions: 6-8 hours
T1 construct: endogenous in cells; host or cells: MV-4-11
Description: (§1) MV-4-11 cells were grown in RPMI 1640 media supplemented with 10% fetal bovine serum, streptomycin and penicillin.
(§2) Cells were cultured at approximately 10^6 cells per mL and incubated in DMSO or the indicated compound for 6-8 hours. Whole cell extracts were prepared using RIPA buffer according to manufacturer's protocol (Pierce). Briefly, 3×10^6 cells were washed once in PBS, the cell pellets were resuspended in RIPA buffer and allowed to incubate for 15 minutes on ice. Cells debris was removed by centrifugation and the cleared whole cell lysates were transferred to new tubes for further analysis.
(§3) For Western blot analysis, whole cell protein extracts were separated on 4-12% SDS-polyacrylamide gels, transferred to nitrocellulose and probed with the indicated primary antibodies. Membranes were subsequently washed and probed with the appropriate IRDye secondary antibodies (LI-COR). The signal was detected using the Odyssey Imaging System (LI-COR).
(§4) The following antibodies were used in these studies: Anti-eRF3/GSPT1: Abcam, ab126090 (Cambridge, Mass.); Anti-Ikaros: Abcam, ab191394 (Cambridge, Mass.); Anti-CK1α: Abcam, ab108296 (Cambridge, Mass.); β-actin (8H10D10) mouse monoclonal antibody: Cell Signaling Technology, #3700 (Danvers, Mass.); IRDye 680RD Goat anti-rabbit antibody: LI-COR, 926-68071 (Lincoln, Nebr.); IRDye 800CW Goat anti-mouse antibody: LI-COR, 926-32210 (Lincoln, Nebr.).
(§5) In each of Tables 1-3, the % degradation values are reported as “A”, “B”, “C”, or “D.” “A” represents a % degradation value of less than 25% (value<25%); “B” represents a % degradation value of equal to or more than 25% and less than 50% (25%≤value<50%); “C” represents a % degradation value of equal to or more than 50% and less than 75% (50%≤value<75%); and “D” represents a % degradation value of equal to or more than 75% (value≥75%).

CK1α = target: T2, CK1α (Homo sapiens, UniProt P48729+Q96SW2); assay: Western blot CK1α degradation assay in MV-4-11 cells; type: cell-based; conditions: 6-8 hours
T2 construct: endogenous in cells; host or cells: MV-4-11
T2 sequence (P48729 whole entry): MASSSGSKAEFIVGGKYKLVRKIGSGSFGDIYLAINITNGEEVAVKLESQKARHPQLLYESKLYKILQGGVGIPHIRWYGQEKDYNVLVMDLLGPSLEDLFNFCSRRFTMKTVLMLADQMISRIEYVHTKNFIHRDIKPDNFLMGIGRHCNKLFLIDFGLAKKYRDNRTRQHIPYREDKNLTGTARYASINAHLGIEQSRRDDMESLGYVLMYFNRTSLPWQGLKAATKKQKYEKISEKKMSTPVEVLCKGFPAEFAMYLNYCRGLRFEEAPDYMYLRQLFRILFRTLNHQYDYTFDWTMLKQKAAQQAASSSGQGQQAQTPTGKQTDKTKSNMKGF
T2 sequence (Q96SW2 whole entry): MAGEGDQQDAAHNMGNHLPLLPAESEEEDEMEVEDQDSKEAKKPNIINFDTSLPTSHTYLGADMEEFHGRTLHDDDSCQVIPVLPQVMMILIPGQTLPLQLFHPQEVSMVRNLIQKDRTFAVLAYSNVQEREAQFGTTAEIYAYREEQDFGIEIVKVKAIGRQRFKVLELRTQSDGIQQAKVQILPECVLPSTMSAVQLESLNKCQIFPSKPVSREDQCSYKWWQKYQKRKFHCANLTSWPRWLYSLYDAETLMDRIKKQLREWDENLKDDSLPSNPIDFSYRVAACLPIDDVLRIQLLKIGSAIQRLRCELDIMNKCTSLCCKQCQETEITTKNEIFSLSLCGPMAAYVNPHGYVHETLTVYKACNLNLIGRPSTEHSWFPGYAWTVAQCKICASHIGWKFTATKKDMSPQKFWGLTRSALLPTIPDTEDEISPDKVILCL
T2 sequence (Q16531 whole entry partner): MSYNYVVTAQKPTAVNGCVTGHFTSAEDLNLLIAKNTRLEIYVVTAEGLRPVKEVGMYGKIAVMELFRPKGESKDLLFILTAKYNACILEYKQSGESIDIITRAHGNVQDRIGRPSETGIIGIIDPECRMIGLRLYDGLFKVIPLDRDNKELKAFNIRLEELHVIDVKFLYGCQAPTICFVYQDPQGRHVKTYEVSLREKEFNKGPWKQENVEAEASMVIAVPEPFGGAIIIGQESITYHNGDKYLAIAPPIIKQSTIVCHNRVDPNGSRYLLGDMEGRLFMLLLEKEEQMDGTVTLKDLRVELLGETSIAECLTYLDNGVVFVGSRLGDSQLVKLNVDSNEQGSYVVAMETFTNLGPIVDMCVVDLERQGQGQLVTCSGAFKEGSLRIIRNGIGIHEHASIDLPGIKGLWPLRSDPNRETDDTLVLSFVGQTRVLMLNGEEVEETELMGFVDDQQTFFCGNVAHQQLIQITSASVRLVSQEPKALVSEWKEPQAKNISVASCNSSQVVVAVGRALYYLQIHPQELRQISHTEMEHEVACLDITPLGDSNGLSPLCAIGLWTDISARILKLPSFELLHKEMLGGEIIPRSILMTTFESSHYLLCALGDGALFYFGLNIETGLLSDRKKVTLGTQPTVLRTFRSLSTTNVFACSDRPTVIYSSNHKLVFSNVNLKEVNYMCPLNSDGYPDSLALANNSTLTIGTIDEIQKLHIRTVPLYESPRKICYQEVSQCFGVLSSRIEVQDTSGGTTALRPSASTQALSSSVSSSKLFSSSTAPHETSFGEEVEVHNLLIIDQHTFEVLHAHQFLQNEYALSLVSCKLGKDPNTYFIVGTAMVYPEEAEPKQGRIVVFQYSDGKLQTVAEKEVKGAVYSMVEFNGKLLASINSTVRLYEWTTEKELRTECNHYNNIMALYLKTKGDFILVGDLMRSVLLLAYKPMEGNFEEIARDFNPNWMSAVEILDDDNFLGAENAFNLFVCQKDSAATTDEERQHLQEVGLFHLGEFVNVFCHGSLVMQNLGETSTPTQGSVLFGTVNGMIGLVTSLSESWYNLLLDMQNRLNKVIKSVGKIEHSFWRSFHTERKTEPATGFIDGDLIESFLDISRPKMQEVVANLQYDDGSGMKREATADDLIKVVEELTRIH
Description: as §1, §2, §3, §4, §5

GSPT1 = target: T3, GSPT1 (Homo sapiens, UniProt P15170+Q96SW2); assay: Western blot GSPT1 degradation assay in MV-4-11 cells; type: cell-based; conditions: for reduced levels of GSPT1: comparative study; for GSPT1 % Degradation at 1 μM: MV-4-11 cells, 6-8 hours
T3 construct: whole cell protein extracts were separated on 4-12% SDS-polyacrylamide gels; endogenous in cells; host or cells: MV-4-11
T3 sequence (P15170 whole entry): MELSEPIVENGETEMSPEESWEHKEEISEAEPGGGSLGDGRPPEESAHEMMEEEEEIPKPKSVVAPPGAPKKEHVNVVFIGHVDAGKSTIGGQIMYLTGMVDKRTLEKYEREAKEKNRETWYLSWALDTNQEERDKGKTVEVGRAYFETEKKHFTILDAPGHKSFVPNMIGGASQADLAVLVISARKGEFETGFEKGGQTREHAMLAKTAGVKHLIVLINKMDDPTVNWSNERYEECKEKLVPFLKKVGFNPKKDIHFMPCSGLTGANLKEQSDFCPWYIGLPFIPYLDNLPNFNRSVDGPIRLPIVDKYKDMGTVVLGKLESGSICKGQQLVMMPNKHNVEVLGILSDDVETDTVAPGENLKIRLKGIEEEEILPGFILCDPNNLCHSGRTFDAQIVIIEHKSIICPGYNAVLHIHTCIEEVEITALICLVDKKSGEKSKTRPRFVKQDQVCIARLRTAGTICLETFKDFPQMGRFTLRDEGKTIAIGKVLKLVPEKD
T3 sequence (Q96SW2 whole entry): as the sequence (Q96SW2 whole entry) above
T3 sequence (Q16531 whole entry partner): as the sequence (Q16531 whole entry partner) above
Description: as §1, §2, §3, §4, §5

MOLM-13 cells [1] = assay: MOLM-13 cell viability assay (CellTiter-Glo 2, 3 days, 2500 cells/well); type: cell-based; conditions: Homo sapiens, MOLM-13, 72 h, percentage of DMSO control
Description: MOLM-13 cells were cultured in RPMI 1640 media supplemented with 10% fetal bovine serum, streptomycin and penicillin, and were plated in white walled 96-well plates at 2500 cells/well. Cells were incubated in DMSO (control) or the indicated compound for 3 days at 37° C. and 5% CO2. Following the incubation period, 100 μL of CellTiterGlow2 (CTG2) reagent (CellTiter-Glo®2 Luminescent Cell Viability Assay, Promega (Madison, Wis.)) was added to each well. Following a 10 minutes incubation with shaking, luminescence was measured using the EnVision Multimode plate reader.
The MOLM-13 cell viability values, measured as percentages of the DMSO control, are reported in Table 8 as “A”, “B”, “C”, or “D.” “A” represents a % viability value of less than 40% (value<40%). “B” represents a % viability value of equal to or more than 40% and less than 60% (40%≤value<60%). “C” represents a % viability value of equal to or more than 60% and less than 90% (60%≤value<90%). “D” represents a % viability value of equal or more than 90% (value≥90%).

MOLM-13 cells [2] = assay: Comparative study cell viability, Molm-13 cells (CTG2, 3 days); type: cell-based; conditions: Homo sapiens, 72 h, read-out: reduced cell viability IC50
Description: (§6) Molm-13 and MV-4-11 cells (both leukemia cell lines) were cultured in RPMI 1640 media supplemented with 10% fetal bovine serum, streptomycin and penicillin, and were plated in white walled 96-well plates at 20,000 cells/well. THLE-2 cells (T-antigen immortalized human liver epithelial cells) were cultured using BEGM Bullet kit (Lonza CC-3170) supplemented with 10% fetal bovine serum, streptomycin and penicillin, and were plated in white walled 96-well plates 5000 cells/well. NHLF (normal human lung fibroblast) cells were cultured in DMEM media supplemented with 10% fetal bovine serum, streptomycin and penicillin, and were plated in white walled 96-well plates at 5000 cells/well. Cells were incubated in DMSO (control) or the indicated compounds for 3 days at 37° C. and 5% CO2. Following the incubation period, 100 μL of CellTiterGlow2 (CTG2) reagent (CellTiter-Glo®2 Luminescent Cell Viability Assay, Promega (Madison, Wis.)) was added to each well. Following a 10 minutes incubation with shaking, luminescence was measured using the Victor Wallac Luminometer or the Envision 2105 multimode plate reader.

MV-4-11 cells = assay: Comparative study cell viability, MV-4-11 cells (CTG2, 3 days); type: cell-based; conditions: for IC50: Homo sapiens, MV4-11, 72 h, 3 days, read-out: reduced cell viability IC50; for IC50 concentration as fold of the IC50 concentration of Compound 1: relative to Compound 1
Description: as §6

THLE-2 cells = assay: Comparative study cell viability, THLE-2 cells (CTG2, 3 days); type: cell-based, human; conditions: for IC50: Homo sapiens, 72 h, 3 days, read-out: reduced cell viability IC50; for IC50 concentration as fold of the IC50 concentration of Compound 1: relative to Compound 1
Description: as §6

NHLF cells = assay: Comparative study cell viability, NHLF cells (CTG2, 3 days); type: cell-based; conditions: Homo sapiens, 72 h, read-out: reduced cell viability IC50
Description: as §6

PBMCs = assay: Comparative study cell viability, LPS-induced PBMCs (CTG); type: cell-based; conditions: PBMC, LPS 18-24 hr, read-out: reduced cell viability IC50
Description: Frozen […] blood mononuclear cells (PBMCs) were purchased from AllCells. Cells were quick thawed, washed with RPMI-1640/10% FBS/1% Penicillin/1% Streptomycin and plated in 96 well plates at 200,000 cells/well. Cells were pretreated with DMSO or the indicated compound for 1 hr and then induced with 100 ng/mL lipopolysaccharide (LPS) for 18-24 hr. Following the incubation period, 100 μL of CTG reagent was added to each well. Plates were incubated on the shaker at RT for 2 min. Following a 10 min incubation without shaking, luminescence was measured using the Envision 2105 multimode plate reader.

IL-1β = IL-1β inhibition assay, LPS-induced PBMCs or CD14+ monocytes, Meso Scale; type: cell-based; conditions: 100 ng/mL LPS 18-24 h
Description: (§7) Either frozen primary blood mononuclear cells (PBMCs) or frozen CD14+ mobilized peripheral blood monocytes were purchased from AllCells (PB003F, Normal Peripheral Blood MNC (Alameda, Calif.)). Cells were quick thawed, washed 1-time with RPMI-1640 (10% FBS/1% Pen-Strep) and plated in 96 well plates at 200,000 cells per well. Cells were pretreated with DMSO only or with the indicated compound for 1 h and then induced with 100 ng/mL lipopolysaccharide (LPS) for 18-24 h. The supernatant was analyzed for IL-1β, IL-6, and TNFα, using Meso Scale assay according to manufacturer's protocol. The negative control wells were treated with DMSO.

TNFα = assay: TNF-α inhibition assay, LPS-induced PBMCs or CD14+ monocytes, Meso Scale; type: cell-based; conditions: 100 ng/mL LPS 18-24 h
Description: as §7

IL-2 = IL-2 fold-change assay, anti-CD3 stimulated PBMCs, Mesoscale; type: cell-based; conditions: Homo sapiens, PBMC, 24 h, fold difference from the DMSO control
Description: For the IL-2 analysis, 96 well plates were precoated with 1 μg/mL anti-human CD3 antibody (OKT3, eBioscience Inc., San Diego, Calif.). After washing with PBS, the indicated compound was added (50 μL/well) followed by PBMCs diluted at 3-4 million cells/mL (150 μL/well). Plates were incubated for 24 h and the supernatants collected for Mesoscale IL-2 analysis. IL-2 activity is measured as fold difference from the DMSO control.
In Table 7, the fold-change values are reported as “A”, “B”, “C”, or “D”. “A” represents a fold-change value of equal to or less than 1 (value≤1); “B” represents a fold-change value of more than 1 and equal to or less than 2 (1<value≤2); “C” represents a fold-change value of more than 2 and equal to or less than 3 (2<value≤3); and “D” represents a fold-change value of more than 3 (value>3).

T1 sequence (Q13422 whole entry): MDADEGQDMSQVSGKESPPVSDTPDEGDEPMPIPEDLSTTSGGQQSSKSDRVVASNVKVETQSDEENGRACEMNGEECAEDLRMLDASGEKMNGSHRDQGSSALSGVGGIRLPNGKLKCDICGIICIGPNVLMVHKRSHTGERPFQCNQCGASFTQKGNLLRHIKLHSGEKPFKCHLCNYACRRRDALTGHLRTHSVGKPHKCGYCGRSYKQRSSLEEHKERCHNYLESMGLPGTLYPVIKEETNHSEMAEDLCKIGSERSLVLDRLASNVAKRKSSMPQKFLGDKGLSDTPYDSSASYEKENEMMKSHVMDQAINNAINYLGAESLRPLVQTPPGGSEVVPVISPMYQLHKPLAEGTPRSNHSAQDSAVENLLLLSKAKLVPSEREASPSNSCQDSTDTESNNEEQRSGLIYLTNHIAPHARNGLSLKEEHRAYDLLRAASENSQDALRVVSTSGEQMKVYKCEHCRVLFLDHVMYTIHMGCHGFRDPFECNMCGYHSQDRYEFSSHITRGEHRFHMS
T1 sequence (Q96SW2 whole entry): as the sequence (Q96SW2 whole entry) above
T1 sequence (Q16531 whole entry partner): as the sequence (Q16531 whole entry partner) above

reduced levels of GSPT1 (GSPT1; 0.1 μM) [%]	reduced levels of GSPT1 (GSPT1; 1 μM) [%]	IC50 (MOLM-13 cells [2]) [nM]	IC50 (MV-4-11 cells) [nM]	IC50 concentration as fold of the IC50 concentration of Compound 1 (MV-4-11 cells)	SMILES	IKAROS % Degradation at 1 μM (IKAROS)	CK1α % Degradation at 1 μM (CK1α)	GSPT1 % Degradation at 1 μM (GSPT1; 1 μM)	viability at 1 µM (MOLM-13 cells [1]) [%]	IC50 (THLE-2 cells) [nM]	IC50 (NHLF cells) [nM]	IC50 (PBMCs) [nM]	IC50 concentration as fold of the IC50 concentration of Compound 1 (THLE-2 cells)	inhibition at 1 µM (IL-1β) [%]	inhibition at 1 µM (TNFα) [%]	fold induction at 1 µM (IL-2)
92	93	74.8	19.6		Cc1ccc(NCC(=O)NCc2ccc3c(c2)CN(C2CCC(=O)NC2=O)C3=O)cc1Cl (centres unmarked) [Compound 1, 2-((3-Chloro-4-methylphenyl)amino)-N-((2-(2,6-dioxopiperidin-3-yl)-1-oxoisoindolin-5-yl)methyl)acetamide]	D (a % degradation value of equal to or more than 75% (value≥75%))	B (a % degradation value of equal to or more than 25% and less than 50% (25%≤value<50%))	D (a % degradation value of equal to or more than 75% (value≥75%))	> 90	> 10000	> 10000	> 10000				
				about 1 fold	CC(C)(C)c1ccc(NCC(=O)NCc2ccc3c(c2)CN(C2CCC(=O)NC2=O)C3=O)cc1 (centres unmarked) [Compound 17, 2-((4-(tert-butyl)phenyl)amino)-N-((2-(2,6-dioxopiperidin-3-yl)-1-oxoisoindolin-5-yl)methyl)acetamide]	C (a % degradation value of equal to or more than 50% and less than 75% (50%≤value<75%))	C (a % degradation value of equal to or more than 50% and less than 75% (50%≤value<75%))	D (a % degradation value of equal to or more than 75% (value≥75%))	60 to 90				about 1.5 fold			
82	98	0.65	1.87		Cc1ccc(NC(=O)NCc2ccc3c(c2)CN(C2CCC(=O)NC2=O)C3=O)cc1Cl (centres unmarked) [Compound A, reference compound]					6.11	31.7	6				
				about 0.5 fold	Cc1ccc(NCC(=O)NCc2ccc3c(c2)CN(C2CCC(=O)NC2=O)C3=O)cc1N(C)C (centres unmarked) [Compound 18, 2-((3-(dimethylamino)-4-methylphenyl)amino)-N-((2-(2,6-dioxopiperidin-3-yl)-1-oxoisoindolin-5-yl)methyl)acetamide]		B (a % degradation value of equal to or more than 25% and less than 50% (25%≤value<50%))	D (a % degradation value of equal to or more than 75% (value≥75%))	> 90				about 1 fold	30 to 50	30 to 50	≤ 1
